Entries after “also recorded” stand apart in the source; their conditions may differ.
Legend:
[1] = literature, cited from earlier work
[2] = system: spontaneously hypertensive rats; experiment: Effect on arterial pressure in spontaneously hypertensive rats, single administration; type: in vivo; conditions: for hypotensive effect by the 6th hour, comparison in words: compound of the present invention vs Nifedipine
white nondescript mice = experiment: in vivo; conditions: for toxicity in words: conclusion from Table 2
Procedure: (§1) The mean lethal dose (LD50) was determined by the Litchfield and Wilcoxon method.

in vivo = conditions: mouse, in vivo, ip
Procedure: as §1

[3] = system: spontaneously hypertensive rats; experiment: Effect on heart rate in spontaneously hypertensive rats; type: in vivo; conditions: for effect on heart rate: 10 and 20 mg/kg, peroral, SHR
Procedure: (§2) In experiments on spontaneously hypertensive rats the compound according to the present invention upon a single administration (10 mg/kg in stomach) caused reduction of systolic arterial pressure. The maximum hypotensive effect (by 21 %) was observed by the 6-th hour after administration of the compound, after 24 hours the pressure was reduced by 17 % as compared to the initial value. A […] administration of the compound for 5 days in the dose of 10 mg/kg into the stomach caused the maximum reduction of the pressure (by 22 %) on the 6-th day, i.e., one day after discontinuation of administration of the compound. A reduced pressure was observed on the 3-rd day (by 10 %) after discontinuation of the administration.

Solubility = type: physicochemical
[4] = system: spontaneously hypertensive rats; experiment: Effect on systolic arterial pressure in spontaneously hypertensive rats, administration for 5 days; type: in vivo; conditions: 10 mg/kg into the stomach for 5 days
Procedure: as §2

[5] = Stability by UV spectrum (solid in the light; alcoholic solution)
[6] = 10 mg/kg, single administration in stomach

Row | SMILES | Hypotensive effect, %, after 48 hrs ([2]; 10 mg/kg) [%] | Hypotensive effect, %, after 1 hr [2, 6] [%] | Hypotensive effect, %, after 6 hrs [2, 6] [%] | Hypotensive effect, %, after 24 hrs [2, 6] [%] | toxicity in words (white nondescript mice) | LD50 at 240 h (in vivo) [mg/kg] | hypotensive effect by the 6th hour, comparison in words [2] | hypotensive effect / systolic pressure 24 hours after administration, in words [2] | effect on heart rate [3] | further results
1 | COC(=O)C1=C(C)NC(C)=C(C(=O)OC)C1c1ccco1 [Analog, 2,6-dimethyl-3,5-dimethoxycarbonyl-4-(2'-furyl)-1,4-dihydropyridine] | 0 | 12 | 7 | 0 | low toxicity | 2900 | – | – | – | hypotensive activity compared with Nifedipine ([1]; vs Nifedipine): considerably lower than that of Nifedipine; hypotensive properties, comparison in words ([2]; vs the compound of the present invention): subtantially lower than those of the compound of the present invention
2 | COC(=O)C1=C(C)NC(C)=C(C(=O)OC)C1c1ccccc1[N+](=O)[O-] [Nifedipine, 2,6-dimethyl-3,5-dimethoxycarbonyl-4-(O-nitrophenyl)-1,4-dihydropyridine] | 0 | 34 | 23 | 0 | – | – | same hypotensive effect | systolic pressure returned to the initial level | tachycardia | hypotensive and coronarodilating effects [1]: hypotensive and coronarodilating effects; hypotensive effect by the 1st hour, comparison in words ([2]; 1 hour after administration, vs the compound of the present invention): superior to the compound of the present invention
3 | COC(=O)C1=C(C)NC(C)=C(C(=O)OC)C1c1ccc([Si](C)(C)C)o1 [Of this invention, 2,6-dimethyl-3,5-dimethoxycarbonyl-4-(5'-trimethylsilyl-2'-furyl)-1,4-dihydropyridine] | – | 13 | 21 | 17 | low toxicity as compared to Nifedipine | > 1000 | same hypotensive effect | still produced the hypotensive effect | either lowers the heart rate or does not change it | Hypotensive effect, %, after 6 hrs ([2]; 20 mg/kg): 30%; Hypotensive effect, %, after 24 hrs ([2]; 20 mg/kg): 39%; Hypotensive effect, %, after 48 hrs ([2]; 20 mg/kg): 28%; duration of hypotensive effect, in words ([2]; vs Nifedipine and/or analog, listed as compound according to the present invention): superior over Nifedipine as regards the duration of its effect; also recorded: more lasting hypotensive effect than the analog and Nifedipine; death of the mice (white nondescript mice; doses of up to 1,000 mg/kg, intraperitoneal): did not cause death of the mice; solubility in methanol, ethanol, chloroform, acetone (Solubility; methanol, ethanol, chloroform, acetone): well soluble; solubility in water (Solubility; water): substantially insoluble; reduced pressure on the 3rd day after discontinuation ([4]; 3rd day after discontinuation): 10%; maximum reduction of the pressure ([4]; on the 6th day (one day after discontinuation)): 22%; period during which UV spectrum remained unchanged in alcoholic solution ([5]; alcoholic solution, 5×10^-5 mol): 6 months; stability in the crystalline state and as solutions ([5]; crystalline state and solutions): stable; UV spectrum upon storage of the solid in the light ([5]; solid, in the light, within a year's period): does not change its UV spectrum within a year's period; effect on heart rate, comparison in words ([3]; vs Nifedipine): less pronounced effect on the heart rate
